Measured values: ChEMBL document CHEMBL1143080, “Discovery of a novel series of nonsteroidal androgen receptor modulators: 5- or 6-oxachrysen-2-ones” (Bioorg Med Chem Lett, 2008)

Legend:
Androgen receptor [1] = target: T1, Androgen receptor (Homo sapiens, UniProt P10275)
T1 sequence (P10275 whole entry): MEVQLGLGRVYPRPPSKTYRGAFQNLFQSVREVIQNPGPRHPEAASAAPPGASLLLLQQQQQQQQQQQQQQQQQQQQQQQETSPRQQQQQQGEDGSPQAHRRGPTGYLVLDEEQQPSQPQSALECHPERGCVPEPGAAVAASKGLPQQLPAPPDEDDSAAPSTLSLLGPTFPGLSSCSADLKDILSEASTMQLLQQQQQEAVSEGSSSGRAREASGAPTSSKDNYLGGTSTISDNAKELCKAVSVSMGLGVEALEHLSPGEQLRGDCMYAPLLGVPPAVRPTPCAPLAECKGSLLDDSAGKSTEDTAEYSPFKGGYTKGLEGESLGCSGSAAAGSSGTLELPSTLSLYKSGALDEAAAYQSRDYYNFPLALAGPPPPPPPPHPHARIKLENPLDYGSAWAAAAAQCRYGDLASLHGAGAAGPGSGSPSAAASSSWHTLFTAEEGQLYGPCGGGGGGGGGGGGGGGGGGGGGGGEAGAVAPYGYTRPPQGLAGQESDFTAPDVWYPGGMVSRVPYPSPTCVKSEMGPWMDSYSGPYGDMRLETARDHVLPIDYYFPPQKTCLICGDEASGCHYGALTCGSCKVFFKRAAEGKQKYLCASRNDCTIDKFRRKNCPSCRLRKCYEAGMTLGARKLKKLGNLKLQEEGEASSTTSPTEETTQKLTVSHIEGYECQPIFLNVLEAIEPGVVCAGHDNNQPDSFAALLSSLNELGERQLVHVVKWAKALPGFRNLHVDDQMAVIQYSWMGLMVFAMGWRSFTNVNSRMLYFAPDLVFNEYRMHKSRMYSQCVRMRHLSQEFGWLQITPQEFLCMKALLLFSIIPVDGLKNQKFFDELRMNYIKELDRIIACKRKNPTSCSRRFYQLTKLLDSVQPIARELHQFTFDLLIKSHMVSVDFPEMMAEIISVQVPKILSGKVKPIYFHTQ
Description: Agonist activity at human androgen receptor african green monkey CV1 cells by cotransfection assay

Androgen receptor [2] = target: T1, Androgen receptor; remark: listed apart in the source
Description: Antagonist activity at human androgen receptor african green monkey CV1 cells by cotransfection assay

Androgen receptor [3] = target: T1, Androgen receptor; remark: listed apart in the source
Description: Binding affinity to human androgen receptor expressed in monkey COS7 cells by whole cell binding assay

Androgen receptor [4] = target: T1, Androgen receptor; remark: listed apart in the source
Description: Activity at androgen receptor in human Saos2 cells assessed as IL6 repression

Row | Structure (SMILES) | EC50 (Androgen receptor [1]) [nM] | IC50 (Androgen receptor [2]) [nM] | Ki (Androgen receptor [3]) [nM] | IC50 (Androgen receptor [4]) [nM]
1 | COc1cccc2c1-c1ccc3[nH]c(=O)cc(C(F)(F)F)c3c1CO2 | 20 | > 10000 | 11 | 14
2 | COc1cccc2oc(=O)c3c(ccc4[nH]c(=O)cc(C)c43)c12 | 11 | > 10000 | 28 | 21
3 | COc1c(C(=O)OC(F)(F)F)ccc2oc(=O)c3c(ccc4[nH]c(=O)cc(C)c43)c12 | 43 | > 10000 | 10 | 0.2
4 | C=CCC1Oc2cccc(OC)c2-c2ccc3[nH]c(=O)cc(C)c3c21 (stereo not given) | > 10000 | 144 | 1590 | –
5 | COc1ccc2oc(=O)c3c(ccc4[nH]c(=O)cc(C)c43)c2c1 | > 10000 | 48 | 610 | 0.8
6 | Cc1cc(=O)[nH]c2ccc3c4cc(F)ccc4oc(=O)c3c12 | 240 | 27 | 1000 | 101
7 | COc1cccc2c1-c1ccc3[nH]c(=O)cc(C)c3c1C(C)O2 (stereo not given) | > 10000 | 62 | 250 | –
8 | O=c1cc(C(F)(F)F)c2c3c(ccc2[nH]1)-c1c(O)cccc1OC3 | 16 | > 10000 | 1.3 | 1.1
9 | CCOc1ccc2oc(=O)c3c(ccc4[nH]c(=O)cc(C)c43)c2c1OC | 18 | > 10000 | 62 | 10
10 | COc1cccc2c1-c1ccc3[nH]c(=O)cc(C(F)(F)F)c3c1OC2 | > 10000 | 78 | 27 | 477
11 | COc1c(O)ccc2c1-c1ccc3[nH]c(=O)cc(C)c3c1CO2 | 306 | 19 | 5 | 1.2
12 | COc1c(OC(C)C)ccc2oc(=O)c3c(ccc4[nH]c(=O)cc(C)c43)c12 | 23 | 20 | 21 | 2.8
13 | COc1cccc2c1-c1ccc3[nH]c(=O)cc(C)c3c1C(O)O2 (stereo not given) | 208 | > 10000 | 1300 | 50
14 | COc1cccc2c(=O)oc3c(ccc4[nH]c(=O)cc(C(F)(F)F)c43)c12 | 90 | > 10000 | 50 | 89
15 | COc1cccc2c1-c1ccc3[nH]c(=O)cc(C)c3c1CO2 | 50 | > 10000 | 59 | 12
16 | COc1c(O)ccc2oc(=O)c3c(ccc4[nH]c(=O)cc(C)c43)c12 | 21 | > 10000 | 4 | 0.2
17 | Cc1cc(=O)[nH]c2ccc3c4c(C(=O)OC(C)(C)C)cccc4oc(=O)c3c12 | 1.1 | > 10000 | 8.7 | 1.9
18 | COc1cccc2c1-c1ccc3[nH]c(=O)cc(C)c3c1C(OC)O2 (stereo not given) | 184 | 19 | 2350 | 112
